Experimental data from publication PMC11783601, “Analogue-Sensitive Inhibition of Histone Demethylases Uncovers Member-Specific Function in Ribosomal Protein Synthesis” (Journal of the American Chemical Society, 2025).
Entries after “also recorded” stand apart in the source; their conditions may differ.

Key:
Test in all cases: H3K9me3 Western blot of nuclear extracts of transfected HEK293T cells
Assay type in all cases: cell-based
[1] = molecular target: T1, full-length KDM4E-F186A (Homo sapiens, UniProt B2RXH2, F186A); conditions: 25-200 µM
T1 construct: we generated the full-length as mutants of the remaining KDM4s; host or cells: HEK293T
T1 sequence (B2RXH2 whole entry F186A): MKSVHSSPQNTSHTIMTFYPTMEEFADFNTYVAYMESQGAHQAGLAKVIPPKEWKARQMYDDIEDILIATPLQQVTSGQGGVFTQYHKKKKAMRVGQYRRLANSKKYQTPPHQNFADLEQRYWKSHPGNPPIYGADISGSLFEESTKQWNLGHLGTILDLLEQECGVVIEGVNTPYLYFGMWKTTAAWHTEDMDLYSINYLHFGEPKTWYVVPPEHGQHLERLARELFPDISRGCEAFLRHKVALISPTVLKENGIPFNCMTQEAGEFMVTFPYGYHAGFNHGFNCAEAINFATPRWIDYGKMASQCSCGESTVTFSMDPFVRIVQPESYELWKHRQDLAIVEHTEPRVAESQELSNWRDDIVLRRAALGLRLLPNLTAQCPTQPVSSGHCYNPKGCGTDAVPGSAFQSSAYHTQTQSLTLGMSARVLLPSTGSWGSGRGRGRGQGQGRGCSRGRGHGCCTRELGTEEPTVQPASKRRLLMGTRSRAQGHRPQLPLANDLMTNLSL
Text: (§1) KDM4B and C are structurally homologous to KDM4A, and KDM4D and E have a catalytic pocket near-identical to that of KDM4A but lack the Tudor and PHD domains known to bind trimethylated lysine in histones (Figure 1B).[11] HEK293T cells were transfected with full-length wild type KDM4B-E or their respective mutants. Western blot analysis of nuclear preparations using the H3K9me3 antibody confirmed all of the proteins to be catalytically active (Figures 4G–N and S32–S35).
(§2) KDM4A mammalian expression plasmid in CMV vector was purchased from Addgene (plasmid #24180). KDM4B mammalian expression plasmid in CMV vector was purchased from Addgene (plasmid #24181). KDM4C mammalian expression plasmid in CMV vector was purchased from Addgene (plasmid #24214). KDM4D mammalian expression plasmid in pReciever vector was purchased from Genecopoia (EX-Z0917-M06.) KDME mammalian expression plasmid in pRP-EXP was designed from Vector Builder. The KDM4A-F185A, KDM4B-F186A, KDM4C -F187A, KDM4D-F189A, and KDM4E F186A mutants were generated using Quikchange Lightening Mutagenesis Kit (Agilent) according to manufacturer’s protocol and confirmed by Sanger […]
(§3) HEK293T/17 cells (ATCC) were grown in Delbucco’s Modified Eagle Medium (DMEM) (Corning) with 10% FBS at 37 °C (Corning), 5% CO2, and 95% relative humidity in a 6-well cell culture plate. When cells reached 90% confluency, 3 µg of plasmid and 6 µg lipofectamine 2000 (Invitrogen: 11668019) were incubated with 100 µL OptiMem. After 5 minutes the plasmid and lipofectamine were combined and incubated at room temperature for 20 minutes and added to the cell culture disk. Cells were returned to the incubator to grow for 4-6 hours. This was followed by treatment of compound treatment (n-octyl IOX121,22 or a specific NOG ester) at indicated concentrations and further culture for specified time. The media was removed, and cells were washed with ice cold PBS (Corning), then trypsinized with TrpLE Express (Gibco). The trypsinization reaction was quenched with DMEM 10% FBS and cells were pelleted then washed once with ice cold PBS. The nuclear extracts were generated by first resuspending the cell pellets in 700 µL nuclear isolation buffer (15 mM Tris pH 7.5, 60 mM KCl, 15 mM NaCl, 5 mM MgCl2, 1 mM CaCl2, 1mm DTT, 2 mM Na3Van, 250 mM sucrose, 1X Pierce protease inhibitor (Thermo Fisher #PIA32955), 1 mM PMSF, 0.3% NP40 diluted to volume with MilliQ H2O) and incubated on ice for 5 minutes.23 The samples were then pelleted by centrifugation at 2000 rcf for 5 minutes.
(§4) The supernatant was removed, and the pelleted nuclei were resuspended in 200 µL Pierce IP lysis buffer (Thermo Fisher #87787) containing 1X Pierce protease inhibitor and left on ice for 5 minutes. The nuclei were then sonicated at 100% amp for 5 minutes (pulsed 1 minute “on”, 20 seconds “rest”) using a Qsonica-Q700, cuphorn sonicator. The samples were pelleted once again at 2000 rcf for 5 minutes and the supernatant containing the nuclear extracts were collected. MgCl2 (1M) solution was added to each sample give a final concentration of 6mM. […]
(§5) Prism with the corresponding bars representing the mean and standard deviation of the population.
(§6) For the time dependent imaging, cells containing the transfected KDM4A mutant were identified by their HA signal. These cells were used to create a selection which was then imposed onto the respective H3K9me3 or BrdU images. The mean signal was then measured for H3K9me3 or BrdU only within the cells expressing the KDM4A mutant. To compare changes in H3K9me3 or BrdU between trials, the quantification values were normalized to the mean signal at t=0. The normalized, mean signal and error for H3K9me3 or BrdU were then plotted in GraphPad Prism.
(§7) 21. General protocol for Western blotting
(§8) Assay samples were mixed with appropriate volume of 4X Laemmli Dye (Bio-Rad), heated at 95 °C for 5 minutes and loaded onto 4–12% Criterion™ XT Bis-Tris protein gels (Bio-Rad #3450123) or in-house prepared SDS-polyacrylamide gel and subjected to electrophoresis […]

[2] = molecular target: T2, full-length KDM4D-F189A (Homo sapiens, UniProt Q6B0I6, F189A); conditions: 25-200 µM
T2 construct: we generated the full-length as mutants of the remaining KDM4s; host or cells: HEK293T
T2 sequence (Q6B0I6 whole entry F189A): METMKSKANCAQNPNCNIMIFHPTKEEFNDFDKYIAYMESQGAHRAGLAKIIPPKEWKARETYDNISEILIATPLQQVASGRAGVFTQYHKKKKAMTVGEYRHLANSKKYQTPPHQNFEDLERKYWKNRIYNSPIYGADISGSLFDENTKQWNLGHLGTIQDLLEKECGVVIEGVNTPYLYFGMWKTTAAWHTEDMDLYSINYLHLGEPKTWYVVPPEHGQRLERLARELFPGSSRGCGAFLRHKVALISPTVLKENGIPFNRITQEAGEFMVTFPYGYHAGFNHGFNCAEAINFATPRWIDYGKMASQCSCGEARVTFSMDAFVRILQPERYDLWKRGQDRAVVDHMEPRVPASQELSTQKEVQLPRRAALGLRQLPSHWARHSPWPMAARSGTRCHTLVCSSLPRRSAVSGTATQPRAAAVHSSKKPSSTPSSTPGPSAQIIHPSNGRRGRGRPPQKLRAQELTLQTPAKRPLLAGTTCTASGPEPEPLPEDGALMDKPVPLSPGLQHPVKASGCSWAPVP
Text: as §1, §2, §3, §4, §5, §6, §7, §8

[3] = molecular target: T3, full-length KDM4C-F187A (Homo sapiens, UniProt Q9H3R0, F187A); conditions: 25-200 µM
T3 construct: we generated the full-length as mutants of the remaining KDM4s; host or cells: HEK293T
T3 sequence (Q9H3R0 whole entry F187A): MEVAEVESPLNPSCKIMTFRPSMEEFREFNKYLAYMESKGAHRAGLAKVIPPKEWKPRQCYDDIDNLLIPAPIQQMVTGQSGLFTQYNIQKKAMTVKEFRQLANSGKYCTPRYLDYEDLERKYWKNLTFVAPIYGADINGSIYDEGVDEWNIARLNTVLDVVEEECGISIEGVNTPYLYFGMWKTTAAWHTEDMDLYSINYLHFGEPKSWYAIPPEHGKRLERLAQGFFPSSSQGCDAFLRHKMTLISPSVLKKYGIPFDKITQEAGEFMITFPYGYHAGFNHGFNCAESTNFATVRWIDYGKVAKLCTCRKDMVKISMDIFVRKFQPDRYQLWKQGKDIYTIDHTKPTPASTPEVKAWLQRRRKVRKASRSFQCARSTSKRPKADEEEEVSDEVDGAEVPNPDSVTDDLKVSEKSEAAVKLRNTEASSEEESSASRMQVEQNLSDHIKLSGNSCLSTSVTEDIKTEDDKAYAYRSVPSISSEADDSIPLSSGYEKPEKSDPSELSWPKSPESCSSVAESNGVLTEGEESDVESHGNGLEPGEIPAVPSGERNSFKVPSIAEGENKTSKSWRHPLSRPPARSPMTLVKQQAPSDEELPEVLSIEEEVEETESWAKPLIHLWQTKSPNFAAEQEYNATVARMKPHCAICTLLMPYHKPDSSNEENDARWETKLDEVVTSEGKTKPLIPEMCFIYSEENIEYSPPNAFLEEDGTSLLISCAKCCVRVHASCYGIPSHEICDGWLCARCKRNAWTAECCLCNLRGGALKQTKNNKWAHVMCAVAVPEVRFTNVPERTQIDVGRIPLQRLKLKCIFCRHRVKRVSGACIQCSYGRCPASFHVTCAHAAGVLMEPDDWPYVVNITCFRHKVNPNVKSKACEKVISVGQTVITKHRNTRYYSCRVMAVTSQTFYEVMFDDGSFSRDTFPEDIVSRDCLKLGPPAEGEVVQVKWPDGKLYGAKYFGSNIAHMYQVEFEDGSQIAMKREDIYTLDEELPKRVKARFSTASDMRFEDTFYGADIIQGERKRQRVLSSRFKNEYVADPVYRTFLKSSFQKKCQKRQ
Text: as §1, §2, §3, §4, §5, §6, §7, §8

[4] = molecular target: T4, full-length KDM4B-F186A (Homo sapiens, UniProt O94953, F186A); conditions: for inhibition of KDM4B-F186A (asKDM4B) H3K9me3 demethylation: 10 μM concentration; for inhibition of KDM4B-F186A H3K9me3 demethylation, dose-dependent: 10, 20 µM
T4 construct: we generated the full-length as mutants of the remaining KDM4s; host or cells: HEK293T
T4 sequence (O94953 1-1096 F186A): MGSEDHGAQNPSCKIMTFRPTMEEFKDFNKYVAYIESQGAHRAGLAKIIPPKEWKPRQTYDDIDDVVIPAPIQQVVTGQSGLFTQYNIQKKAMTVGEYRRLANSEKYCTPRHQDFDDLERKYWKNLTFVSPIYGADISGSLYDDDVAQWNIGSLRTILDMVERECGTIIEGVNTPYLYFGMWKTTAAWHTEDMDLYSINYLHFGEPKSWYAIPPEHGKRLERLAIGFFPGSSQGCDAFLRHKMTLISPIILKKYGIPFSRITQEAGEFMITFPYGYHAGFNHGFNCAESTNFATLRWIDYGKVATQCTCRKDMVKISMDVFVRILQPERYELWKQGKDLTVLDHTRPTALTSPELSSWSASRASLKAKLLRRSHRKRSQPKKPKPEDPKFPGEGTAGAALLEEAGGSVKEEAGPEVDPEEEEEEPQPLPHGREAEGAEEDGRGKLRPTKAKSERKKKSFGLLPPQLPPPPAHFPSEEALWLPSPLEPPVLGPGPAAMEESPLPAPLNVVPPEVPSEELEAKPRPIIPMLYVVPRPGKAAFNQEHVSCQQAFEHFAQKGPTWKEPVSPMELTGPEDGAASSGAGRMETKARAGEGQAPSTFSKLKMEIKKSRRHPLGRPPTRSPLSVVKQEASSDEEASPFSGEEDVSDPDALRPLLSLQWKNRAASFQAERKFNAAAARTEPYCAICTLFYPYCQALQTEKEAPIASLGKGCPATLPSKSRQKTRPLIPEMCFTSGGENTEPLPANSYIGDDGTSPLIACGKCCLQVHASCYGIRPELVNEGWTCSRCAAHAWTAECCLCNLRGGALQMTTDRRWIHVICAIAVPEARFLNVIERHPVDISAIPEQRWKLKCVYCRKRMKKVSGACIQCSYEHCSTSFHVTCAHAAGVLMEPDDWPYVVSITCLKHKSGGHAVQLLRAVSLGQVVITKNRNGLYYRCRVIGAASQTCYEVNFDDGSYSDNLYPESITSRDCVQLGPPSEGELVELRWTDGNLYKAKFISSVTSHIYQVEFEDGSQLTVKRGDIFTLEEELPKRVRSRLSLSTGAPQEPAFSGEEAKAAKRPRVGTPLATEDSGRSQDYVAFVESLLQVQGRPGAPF
Text: as §1, §2, §3, §4, §5, §6, §7, §8

SMILES	inhibition of KDM4E-F186A H3K9me3 demethylation [1]	inhibition of KDM4D-F189A H3K9me3 demethylation [2]	inhibition of KDM4C-F187A H3K9me3 demethylation [3]	inhibition of KDM4B-F186A (asKDM4B) H3K9me3 demethylation [4]	inhibition of KDM4B-F186A H3K9me3 demethylation, dose-dependent [4]
CCCCCCCCOC(=O)C(=O)NC(CC(C)C)C(=O)O [6A, L-Leu octyl-ester NOG]	Dose-dependent inhibition; also recorded: significantly reduced	Dose-dependent inhibition; also recorded: significantly reduced	Dose-dependent inhibition; also recorded: significantly reduced	robust inhibition	Dose-dependent inhibition; also recorded: significantly reduced
CC(C)CC(NC(=O)C(=O)OCc1cccc(C(F)(F)F)c1)C(=O)O [6B, L-Leu TFMB-ester NOG]	significantly reduced	Inhibition; also recorded: significantly reduced	significantly reduced	robust inhibition	Dose-dependent inhibition; also recorded: significantly reduced
